Data taken from patent US20130090303A1, “Agonists of PY2Y Receptor as a Treatment for Aortic Stenosis and Cardiovascular Calcification” (UNIVERSITE LAVAL, priority 2011, published 2013).

Assays:
[1] = tested on: valve interstitial cells (VICs); experiment: In vitro calcification of isolated valve interstitial cells (calcium by Arsenazo III method); assay type: cell-based; details: isolated human VICs, pro-calcifying medium 7 days; FIG. 2A/2B
Experimental: In isolated cells, calcium was measured by the Arsenazo III method (Côte N, et al. J Mol Cell Cardiol 2012;52:1191-202) and results reported as percent changes.
(§1) Human valve interstitial cells (VICs) were isolated by collagenase digestion. To provoke calcification, cells were incubated for 7 days with a pro-calcifying medium containing: DMEM+5% FBS, 10^−7 M insulin, 50 μg /ml ascorbic acid and NaH2PO4 at 2 mM.

Runx2, osteocalcin = experiment: Real-time PCR expression of Runx2 and osteocalcin in isolated VICs; assay type: cell-based, Human; details: q-PCR normalized to HPRT, FIG. 2C
Experimental: RNA was also extracted from AS valves and cells during in vitro experiments. Total RNA was isolated with RNeasy micro kit from Qiagen (Qiagen, Mississauga, Ont, Canada). The RNA extraction protocol was performed according to manufacturer's instructions using 100 mg of tissue. The quality of total RNA was monitored by capillary electrophoresis (Experion, Biorad, Mississauga, Ont, Canada). Four (4) μg of RNA was reverse transcribed using the Quantitec Reverse Transcription Kit from Qiagen. Quantitative real-time PCR (q-PCR) was performed with Quantitec SYBR Green PCR kit from Qiagen in the Rotor-Gene 6000 system (Corbett Robotics Inc, San Francisco, Calif., USA). The following primers were obtained from (Invitrogen, Burlington, Ont, Canada): P2Y2, Runx2, osteocalcin. The expression of hypoxanthine-guanine phosphoribosyltransferase (HPRT) (Invitrogen, Burlington, On, Canada) as a reference gene was chosen to normalize the results.
as §1

Compound | calcification of isolated VICs [1] | expression of osteocalcin (Runx2, osteocalcin) | expression of the bone transcription factor, Runx2 (Runx2, osteocalcin)
O=c1ccn([C@@H]2O[C@H](COP(=O)(O)OP(=O)(O)OP(=O)(O)O)[C@@H](O)[C@H]2O)c(=S)[nH]1 [2-thioUTP] | reduced significantly calcification | decreased the expression | decreased the expression
Cc1ccc(C(=O)Nc2ccc(S(=O)(=O)O)c3cc(S(=O)(=O)O)cc(S(=O)(=O)O)c23)cc1NC(=O)c1cccc(NC(=O)Nc2cccc(C(=O)Nc3cc(C(=O)Nc4ccc(S(=O)(=O)O)c5cc(S(=O)(=O)O)cc(S(=O)(=O)O)c45)ccc3C)c2)c1 [suramin] | increased calcification |  | 
